# In article PMC11129975, “A first-in-human phase I study of TAS-117, an allosteric AKT inhibitor, in patients with advanced solid tumors” (Cancer Chemotherapy and Pharmacology, 2024):
# Experiment: Phase I safety: adverse events, adverse drug reactions, DLTs in patients with advanced solid tumors
# Assay type: in vivo, human
# Source text: This was a phase I, open-label, non-randomized, dose-escalating first-in-human study to evaluate the safety, pharmacokinetics, antitumor activity, pharmacodynamics, and pharmacogenomics of TAS-117 in patients with advanced solid tumors. The study had three phases: a dose escalation phase (DEP), a regimen modification phase (RMP), and a safety assessment phase (SAP). The treatment cycle on each regimen lasted 21 days. The DEP used an accelerated titration and 3 + 3 design. TAS-117 was administered orally once daily (QD) on an empty stomach (1 h before or 2 h after a meal). Dosing was determined based on a 4-week repeated oral-dose toxicology study in monkeys (data on file, Taiho Pharmaceutical Co., Ltd.); the highest non-severely toxic dose was 1.2 mg/kg/day, which was converted to 3.84 mg/body/day, or 2.4 mg/m^2. Therefore, the starting dose was determined to be ≤ 2.4 mg/m^2. At dose level 1, TAS-117 was administered at 2 mg QD (Day − 2), and the dose was increased to 4 mg QD after 2 days (Day 1). The RMP was conducted according to a 3 + 3 design. During this phase, the dose regimen was changed from QD administration to intermittent dosing of daily TAS-117 with 4 days on/3 days off. TAS-117 was administered on an empty stomach. Dose-limiting toxicities (DLTs) were evaluated in Cycle 1 of the DEP and RMP. […] The RD and regimen for the SAP were determined based on the safety, pharmacokinetics, pharmacodynamics, and antitumor activity profile determined in the DEP and RMP. During the SAP, the safety and preliminary efficacy profiles of TAS-117 were assessed at the RD and recommended regimen. Three cohorts were included in this assessment. Cohort 1 included patients with endometrial cancer with a PIK3CA mutation; cohort 2 included patients with endometrial cancer with an AKT1 mutation, AKT1 amplification, or AKT2 amplification; and cohort 3 included patients with ovarian clear cell carcinoma.
# The primary endpoints were the proportion of patients who experienced DLTs in Cycle 1 of the DEP and RMP and the incidence of adverse events (AEs) and adverse drug reactions (ADRs) in the SAP. AEs and ADRs were coded using the Medical Dictionary for Regulatory Activities (MedDRA; version 24.1) and graded according to the National Cancer Institute Common Terminology Criteria for Adverse Events (CTCAE; version 4.03). Secondary endpoints were pharmacokinetic findings, changes in the ratio of phosphorylated PRAS40 (pPRAS40)/total PRAS40 from baseline, efficacy, and pharmacogenomics findings.
structure (smiles),measurement,setting,value
C[C@]1(O)C[C@@](N)(c2ccc(-c3nc4n(c3-c3ccccc3)COc3ccncc3-4)cc2)C1 [TAS-117],Grade 3 maculopapular rash with treatment interruption and/or dose reduction,"RMP dose level 5 (32 mg), Cycle 1 and Cycle 2",two of three patients
same,DLT (grade 3 maculopapular rash) during Cycle 1,"RMP dose level 5 (32 mg), intermittent administration",one of the three patients
same,Adverse drug reactions: ALT increased,"RMP n = 10, All grade",0 (0.0) n (%)
same,Adverse drug reactions: AST increased,"RMP n = 10, All grade",1 (10.0) n (%)
same,Adverse drug reactions: Any events,"RMP n = 10, All grade",10 (100.0) n (%)
same,Adverse drug reactions: Blood AP increased,"RMP n = 10, All grade",1 (10.0) n (%)
same,Adverse drug reactions: Decreased appetite,"RMP n = 10, All grade",5 (50.0) n (%)
same,Adverse drug reactions: Diarrhea,"RMP n = 10, All grade",2 (20.0) n (%)
same,Adverse drug reactions: Dry skin,"RMP n = 10, All grade",1 (10.0) n (%)
same,Adverse drug reactions: GGT increased,"RMP n = 10, All grade",2 (20.0) n (%)
same,Adverse drug reactions: GI disorders,"RMP n = 10, All grade",8 (80.0) n (%)
same,Adverse drug reactions: General disorders and administration site conditions,"RMP n = 10, All grade",5 (50.0) n (%)
same,Adverse drug reactions: Hyperglycemia,"RMP n = 10, All grade",3 (30.0) n (%)
same,Adverse drug reactions: Investigations,"RMP n = 10, All grade",6 (60.0) n (%)
same,Adverse drug reactions: Metabolism and nutrition disorders,"RMP n = 10, All grade",5 (50.0) n (%)
same,Adverse drug reactions: Nausea,"RMP n = 10, All grade",3 (30.0) n (%)
same,Adverse drug reactions: Neutrophil count decreased,"RMP n = 10, All grade",3 (30.0) n (%)
same,Adverse drug reactions: Pruritus,"RMP n = 10, All grade",4 (40.0) n (%)
same,Adverse drug reactions: Pyrexia,"RMP n = 10, All grade",4 (40.0) n (%)
same,Adverse drug reactions: Rash maculo-papular,"RMP n = 10, All grade",9 (90.0) n (%)
same,Adverse drug reactions: Skin and SC tissue disorders,"RMP n = 10, All grade",9 (90.0) n (%)
same,Adverse drug reactions: Stomatitis,"RMP n = 10, All grade",8 (80.0) n (%)
same,Adverse drug reactions: Vomiting,"RMP n = 10, All grade",1 (10.0) n (%)
same,Adverse drug reactions: WBC count decreased,"RMP n = 10, All grade",3 (30.0) n (%)
same,Adverse events: ALT increased,"RMP n = 10, All grade",1 (10.0) n (%)
same,Adverse events: AST increased,"RMP n = 10, All grade",2 (20.0) n (%)
same,Adverse events: Any events,"RMP n = 10, All grade",10 (100.0) n (%)
same,Adverse events: Blood AP increased,"RMP n = 10, All grade",1 (10.0) n (%)
same,Adverse events: Decreased appetite,"RMP n = 10, All grade",7 (70.0) n (%)
same,Adverse events: Diarrhea,"RMP n = 10, All grade",3 (30.0) n (%)
same,Adverse events: Dry skin,"RMP n = 10, All grade",1 (10.0) n (%)
same,Adverse events: GGT increased,"RMP n = 10, All grade",2 (20.0) n (%)
same,Adverse events: GI disorders,"RMP n = 10, All grade",9 (90.0) n (%)
same,Adverse events: General disorders and administration site conditions,"RMP n = 10, All grade",9 (90.0) n (%)
same,Adverse events: Hyperglycemia,"RMP n = 10, All grade",3 (30.0) n (%)
same,Adverse events: Investigations,"RMP n = 10, All grade",7 (70.0) n (%)
same,Adverse events: Metabolism and nutrition disorders,"RMP n = 10, All grade",7 (70.0) n (%)
same,Adverse events: Nausea,"RMP n = 10, All grade",4 (40.0) n (%)
same,Adverse events: Neutrophil count decreased,"RMP n = 10, All grade",3 (30.0) n (%)
same,Adverse events: Pruritus,"RMP n = 10, All grade",4 (40.0) n (%)
same,Adverse events: Pyrexia,"RMP n = 10, All grade",6 (60.0) n (%)
same,Adverse events: Rash maculo-papular,"RMP n = 10, All grade",9 (90.0) n (%)
same,Adverse events: Skin and SC tissue disorders,"RMP n = 10, All grade",9 (90.0) n (%)
same,Adverse events: Stomatitis,"RMP n = 10, All grade",8 (80.0) n (%)
same,Adverse events: Vomiting,"RMP n = 10, All grade",2 (20.0) n (%)
same,Adverse events: WBC count decreased,"RMP n = 10, All grade",3 (30.0) n (%)
same,Adverse drug reactions: ALT increased,"RMP n = 10, ≥ Grade 3",0 (0.0) n (%)
same,Adverse drug reactions: AST increased,"RMP n = 10, ≥ Grade 3",0 (0.0) n (%)
same,Adverse drug reactions: Any events,"RMP n = 10, ≥ Grade 3",6 (60.0) n (%)
same,Adverse drug reactions: Blood AP increased,"RMP n = 10, ≥ Grade 3",0 (0.0) n (%)
same,Adverse drug reactions: Decreased appetite,"RMP n = 10, ≥ Grade 3",0 (0.0) n (%)
same,Adverse drug reactions: Diarrhea,"RMP n = 10, ≥ Grade 3",0 (0.0) n (%)
same,Adverse drug reactions: Dry skin,"RMP n = 10, ≥ Grade 3",0 (0.0) n (%)
same,Adverse drug reactions: GGT increased,"RMP n = 10, ≥ Grade 3",1 (10.0) n (%)
same,Adverse drug reactions: GI disorders,"RMP n = 10, ≥ Grade 3",0 (0.0) n (%)
same,Adverse drug reactions: General disorders and administration site conditions,"RMP n = 10, ≥ Grade 3",0 (0.0) n (%)
same,Adverse drug reactions: Hyperglycemia,"RMP n = 10, ≥ Grade 3",2 (20.0) n (%)
same,Adverse drug reactions: Investigations,"RMP n = 10, ≥ Grade 3",3 (30.0) n (%)
same,Adverse drug reactions: Metabolism and nutrition disorders,"RMP n = 10, ≥ Grade 3",2 (20.0) n (%)
same,Adverse drug reactions: Nausea,"RMP n = 10, ≥ Grade 3",0 (0.0) n (%)
same,Adverse drug reactions: Neutrophil count decreased,"RMP n = 10, ≥ Grade 3",0 (0.0) n (%)
same,Adverse drug reactions: Pruritus,"RMP n = 10, ≥ Grade 3",0 (0.0) n (%)
same,Adverse drug reactions: Pyrexia,"RMP n = 10, ≥ Grade 3",0 (0.0) n (%)
same,Adverse drug reactions: Rash maculo-papular,"RMP n = 10, ≥ Grade 3",3 (30.0) n (%)
same,Adverse drug reactions: Skin and SC tissue disorders,"RMP n = 10, ≥ Grade 3",3 (30.0) n (%)
same,Adverse drug reactions: Stomatitis,"RMP n = 10, ≥ Grade 3",0 (0.0) n (%)
same,Adverse drug reactions: Vomiting,"RMP n = 10, ≥ Grade 3",0 (0.0) n (%)
same,Adverse drug reactions: WBC count decreased,"RMP n = 10, ≥ Grade 3",2 (20.0) n (%)
same,Adverse events: ALT increased,"RMP n = 10, ≥ Grade 3",0 (0.0) n (%)
same,Adverse events: AST increased,"RMP n = 10, ≥ Grade 3",0 (0.0) n (%)
same,Adverse events: Any events,"RMP n = 10, ≥ Grade 3",7 (70.0) n (%)
same,Adverse events: Blood AP increased,"RMP n = 10, ≥ Grade 3",0 (0.0) n (%)
same,Adverse events: Decreased appetite,"RMP n = 10, ≥ Grade 3",0 (0.0) n (%)
same,Adverse events: Diarrhea,"RMP n = 10, ≥ Grade 3",1 (10.0) n (%)
same,Adverse events: Dry skin,"RMP n = 10, ≥ Grade 3",0 (0.0) n (%)
same,Adverse events: GGT increased,"RMP n = 10, ≥ Grade 3",1 (10.0) n (%)
same,Adverse events: GI disorders,"RMP n = 10, ≥ Grade 3",2 (20.0) n (%)
same,Adverse events: General disorders and administration site conditions,"RMP n = 10, ≥ Grade 3",0 (0.0) n (%)
same,Adverse events: Hyperglycemia,"RMP n = 10, ≥ Grade 3",2 (20.0) n (%)
same,Adverse events: Investigations,"RMP n = 10, ≥ Grade 3",3 (30.0) n (%)
same,Adverse events: Metabolism and nutrition disorders,"RMP n = 10, ≥ Grade 3",2 (20.0) n (%)
same,Adverse events: Nausea,"RMP n = 10, ≥ Grade 3",0 (0.0) n (%)
same,Adverse events: Neutrophil count decreased,"RMP n = 10, ≥ Grade 3",0 (0.0) n (%)
same,Adverse events: Pruritus,"RMP n = 10, ≥ Grade 3",0 (0.0) n (%)
same,Adverse events: Pyrexia,"RMP n = 10, ≥ Grade 3",0 (0.0) n (%)
same,Adverse events: Rash maculo-papular,"RMP n = 10, ≥ Grade 3",3 (30.0) n (%)
same,Adverse events: Skin and SC tissue disorders,"RMP n = 10, ≥ Grade 3",3 (30.0) n (%)
same,Adverse events: Stomatitis,"RMP n = 10, ≥ Grade 3",0 (0.0) n (%)
same,Adverse events: Vomiting,"RMP n = 10, ≥ Grade 3",0 (0.0) n (%)
same,Adverse events: WBC count decreased,"RMP n = 10, ≥ Grade 3",2 (20.0) n (%)
same,Adverse drug reactions: ALT increased,"SAP n = 43, All grade",6 (14.0) n (%)
